“And” between values parts separate entries of the source, which are not always exact repeats. Equal entries are not always repeated. Where two headings read alike, the source gives them in different places.
Key:
weeds = test: Glasshouse weed control, HST inhibitors alone and with A22, pre-emergence; assay type: in vivo; details: 336 h, 14 DAT; for pest or weed control at 15.625 g/ha: HST inhibitor rate 15.625 g/ha; for pest or weed control at 62.5 g/ha: HST inhibitor rate 62.5 g/ha; for pest or weed control at 250 g/ha: HST inhibitor rate 250 g/ha
Procedure, shortened: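 Weeds grown in glasshouse trays (24-27 C day, 18-21 C night, ~15 h photoperiod) and track-sprayed in 0.2% X77 at […], pre-emergence or post-emergence at about 7-12 d. HPPD inhibitor A22 applied at 2 g/ha alone or mixed with HST herbicides. Damage scored 0–100% at 14 DAT; synergy calculated by Colby formula.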

[1] = system: tobacco (var Samsun) plantlets on liquid culture medium; test: HST + HPPD herbicide effects on tobacco seedlings on liquid culture medium; assay type: in vivo; details: for % Injury, plus Mesotrione (0.0005 ppm) / % Injury, plus Mesotrione (0.001 ppm) / % Injury (bleaching), compound 2.13 only / effect of low amounts of mesotrione on the injury down the dose response: liquid culture; for % Injury, plus Mesotrione (0.0005 ppm) / % Injury, plus Mesotrione (0.001 ppm) / % Injury (bleaching), compound 2.13 only: 20 DAT; for % bleaching, +mesotrione 0.001 ppm / % bleaching, HST herbicide alone: liquid culture medium, 14 DAT; for effect of low amounts of mesotrione on the injury down the dose response: repeat experiments
Description: In an alternative herbicide test procedure tobacco (var Samsun) plantlets germinated aseptically in agar made up in 1/3 strength Murashige and Skoog salts medium are transferred after 4 d to float on top of 2.9 ml of sterile liquid culture medium (half strength Murashige and Skoog medium containing 30 mM sucrose) in wells of 12 well plates. Test compounds are added at various doses and bleaching damage is assessed after 14-20 DAT. The plantlets are kept covered under clear perspex and grown at 18° C. (night) and 24° C. (day) under a 1611 day (˜500-900 umol/m^2), 8 h darkness regime Plantlets continue to grow and produce new tissue over the 14-20 DAT period but are bleached and grow less in the presence of controlling concentrations of herbicide.

[2] = BRAPL, read-out: BRAPL Obs, % control score
[3] = PANMI, read-out: PANMI Obs, % control score
[4] = SIDSP, read-out: SIDSP Obs, % control score
[5] = Digitaria sanguinalis, DIGSA, read-out: DIGSA Obs, % control score
[6] = Echinochloa crus-galli, ECHCG, read-out: ECHCG Obs, % control score
[7] = Setaria faberi, SETFA, read-out: SETFA Obs, % control score
[8] = range of rates of compound 2.13 plus the higher dose of mesotrione
[9] = 0.19 ppm + mesotrione 0.001 ppm
[10] = 0.58 ppm + mesotrione 0.001 ppm

O=c1c(-c2c(Cl)ccc(Cl)c2Cl)c(O)c2nccnc2n1CC(F)F [Compound 2.14]
20%: pest or weed control at 250 g/ha (weeds; [2]) | pest or weed control at 250 g/ha (weeds; [7])
0%: pest or weed control at 15.625 g/ha (weeds; [2]) | pest or weed control at 15.625 g/ha (weeds; [3]) | pest or weed control at 62.5 g/ha (weeds; [3]) | pest or weed control at 15.625 g/ha (weeds; [4]) | pest or weed control at 62.5 g/ha (weeds; [4]) | pest or weed control at 15.625 g/ha (weeds; [5]) | pest or weed control at 62.5 g/ha (weeds; [5]) | pest or weed control at 15.625 g/ha (weeds; [6]) | pest or weed control at 15.625 g/ha (weeds; [7])
2%: pest or weed control at 62.5 g/ha (weeds; [2]) | pest or weed control at 250 g/ha (weeds; [3]) | pest or weed control at 62.5 g/ha (weeds; [7])
5%: pest or weed control at 250 g/ha (weeds; [4]) | pest or weed control at 250 g/ha (weeds; [5]) | pest or weed control at 62.5 g/ha (weeds; [6])
50%: pest or weed control at 250 g/ha (weeds; [6])

O=c1c(-c2c(F)ccc(F)c2Cl)c(O)c2cccnc2n1CC(F)F [Compound 2.13]
80%: % Injury, plus Mesotrione (0.001 ppm) ([1]; compound 2.13 0.09 ppm + mesotrione 0.001 ppm) | % Injury, plus Mesotrione (0.001 ppm) ([1]; compound 2.13 0.28 ppm + mesotrione 0.001 ppm)
50%: % Injury (bleaching), compound 2.13 only ([1]; compound 2.13 7.67 ppm)
20%: bleaching expected (Colby) [1, 8]
40%: % Injury, plus Mesotrione (0.001 ppm) ([1]; compound 2.13 0.01 ppm + mesotrione 0.001 ppm) | % Injury, plus Mesotrione (0.0005 ppm) ([1]; compound 2.13 0.85 ppm + mesotrione 0.0005 ppm)
60%: % Injury, plus Mesotrione (0.001 ppm) ([1]; compound 2.13 0.03 ppm + mesotrione 0.001 ppm)
90%: % Injury, plus Mesotrione (0.001 ppm) ([1]; compound 2.13 0.85 ppm + mesotrione 0.001 ppm) | % Injury, plus Mesotrione (0.0005 ppm) ([1]; compound 2.13 2.56 ppm + mesotrione 0.0005 ppm) | % Injury, plus Mesotrione (0.001 ppm) ([1]; compound 2.13 2.56 ppm + mesotrione 0.001 ppm)
0%: % Injury, plus Mesotrione (0.0005 ppm) ([1]; compound 2.13 0.01 ppm + mesotrione 0.0005 ppm) | % Injury (bleaching), compound 2.13 only ([1]; compound 2.13 0.01 ppm) | % Injury, plus Mesotrione (0.0005 ppm) ([1]; compound 2.13 0.03 ppm + mesotrione 0.0005 ppm) | % Injury (bleaching), compound 2.13 only ([1]; compound 2.13 0.03 ppm) | % Injury, plus Mesotrione (0.0005 ppm) ([1]; compound 2.13 0.09 ppm + mesotrione 0.0005 ppm) | % Injury (bleaching), compound 2.13 only ([1]; compound 2.13 0.09 ppm) | % Injury, plus Mesotrione (0.0005 ppm) ([1]; compound 2.13 0.28 ppm + mesotrione 0.0005 ppm) | % Injury (bleaching), compound 2.13 only ([1]; compound 2.13 0.28 ppm) | % Injury (bleaching), compound 2.13 only ([1]; compound 2.13 0.85 ppm) | % Injury (bleaching), compound 2.13 only ([1]; compound 2.13 2.56 ppm)
80% and 90%: bleaching observed [1, 8]
100%: % Injury, plus Mesotrione (0.0005 ppm) ([1]; compound 2.13 7.67 ppm + mesotrione 0.0005 ppm) | % Injury, plus Mesotrione (0.001 ppm) ([1]; compound 2.13 7.67 ppm + mesotrione 0.001 ppm) | % Injury, plus Mesotrione (0.0005 ppm) ([1]; compound 2.13 23 ppm + mesotrione 0.0005 ppm) | % Injury, plus Mesotrione (0.001 ppm) ([1]; compound 2.13 23 ppm + mesotrione 0.001 ppm) | % Injury (bleaching), compound 2.13 only ([1]; compound 2.13 23 ppm)

Oc1c(Cl)c(F)nc(F)c1Cl [Compound 1.1, haloxydine]
50%: % bleaching, HST herbicide alone ([1]; 0.19 ppm)
90%: % bleaching, HST herbicide alone ([1]; 0.58 ppm)
100%: % bleaching, +mesotrione 0.001 ppm [1, 9] | % bleaching, +mesotrione 0.001 ppm [1, 10] | % bleaching, +mesotrione 0.001 ppm ([1]; 1.7 ppm + mesotrione 0.001 ppm) | % bleaching, HST herbicide alone ([1]; 1.7 ppm) | % bleaching, +mesotrione 0.001 ppm ([1]; 5.2 ppm + mesotrione 0.001 ppm) | % bleaching, HST herbicide alone ([1]; 5.2 ppm) | % bleaching, +mesotrione 0.001 ppm ([1]; 16 ppm + mesotrione 0.001 ppm) | % bleaching, HST herbicide alone ([1]; 16 ppm) | % bleaching, +mesotrione 0.001 ppm ([1]; 47 ppm + mesotrione 0.001 ppm) | % bleaching, HST herbicide alone ([1]; 47 ppm)
clear synergistic effects: effect of low amounts of mesotrione on the injury down the dose response [1]

O=c1c(-c2cc(C(F)(F)F)ccc2Cl)c(O)c2nccnc2n1CC(F)F [Compound 2.9]
50%: pest or weed control at 250 g/ha (weeds; [2])
0%: pest or weed control at 15.625 g/ha (weeds; [2]) | pest or weed control at 15.625 g/ha (weeds; [3]) | pest or weed control at 62.5 g/ha (weeds; [3]) | pest or weed control at 15.625 g/ha (weeds; [4]) | pest or weed control at 62.5 g/ha (weeds; [4]) | pest or weed control at 15.625 g/ha (weeds; [5]) | pest or weed control at 62.5 g/ha (weeds; [5]) | pest or weed control at 15.625 g/ha (weeds; [6]) | pest or weed control at 62.5 g/ha (weeds; [6]) | pest or weed control at 15.625 g/ha (weeds; [7]) | pest or weed control at 62.5 g/ha (weeds; [7])
2%: pest or weed control at 62.5 g/ha (weeds; [2])
65%: pest or weed control at 250 g/ha (weeds; [5])
60%: pest or weed control at 250 g/ha (weeds; [3]) | pest or weed control at 250 g/ha (weeds; [6])
40%: pest or weed control at 250 g/ha (weeds; [4])
30%: pest or weed control at 250 g/ha (weeds; [7])

O=c1c(-c2c(F)ccc(Br)c2Cl)c(O)c2nccnc2n1CC(F)F [Compound 2.8]
60%: pest or weed control at 250 g/ha (weeds; [3])
50%: pest or weed control at 250 g/ha (weeds; [6])
2%: pest or weed control at 250 g/ha (weeds; [4]) | pest or weed control at 62.5 g/ha (weeds; [6])
0%: pest or weed control at 15.625 g/ha (weeds; [2]) | pest or weed control at 15.625 g/ha (weeds; [3]) | pest or weed control at 62.5 g/ha (weeds; [3]) | pest or weed control at 15.625 g/ha (weeds; [4]) | pest or weed control at 62.5 g/ha (weeds; [4]) | pest or weed control at 15.625 g/ha (weeds; [5]) | pest or weed control at 62.5 g/ha (weeds; [5]) | pest or weed control at 15.625 g/ha (weeds; [6]) | pest or weed control at 15.625 g/ha (weeds; [7]) | pest or weed control at 62.5 g/ha (weeds; [7])
10%: pest or weed control at 250 g/ha (weeds; [7])
1%: pest or weed control at 62.5 g/ha (weeds; [2])
15%: pest or weed control at 250 g/ha (weeds; [2])
30%: pest or weed control at 250 g/ha (weeds; [5])

O=c1c(-c2c(F)ccc(Br)c2Cl)c(O)c2cccnc2n1CC(F)F [Compound 2.15]
40%: % bleaching, HST herbicide alone ([1]; 5.2 ppm)
80%: % bleaching, +mesotrione 0.001 ppm ([1]; 1.7 ppm + mesotrione 0.001 ppm)
0%: % bleaching, +mesotrione 0.001 ppm [1, 9] | % bleaching, HST herbicide alone ([1]; 0.58 ppm) | pest or weed control at 15.625 g/ha (weeds; [2]) | pest or weed control at 62.5 g/ha (weeds; [2]) | pest or weed control at 250 g/ha (weeds; [2]) | pest or weed control at 15.625 g/ha (weeds; [3]) | pest or weed control at 62.5 g/ha (weeds; [3]) | pest or weed control at 250 g/ha (weeds; [3]) | pest or weed control at 15.625 g/ha (weeds; [4]) | pest or weed control at 62.5 g/ha (weeds; [4]) | pest or weed control at 250 g/ha (weeds; [4]) | pest or weed control at 15.625 g/ha (weeds; [5]) | pest or weed control at 62.5 g/ha (weeds; [5]) | pest or weed control at 250 g/ha (weeds; [5]) | pest or weed control at 15.625 g/ha (weeds; [6]) | pest or weed control at 62.5 g/ha (weeds; [6]) | pest or weed control at 250 g/ha (weeds; [6]) | pest or weed control at 15.625 g/ha (weeds; [7]) | pest or weed control at 62.5 g/ha (weeds; [7]) | pest or weed control at 250 g/ha (weeds; [7])
100%: % bleaching, +mesotrione 0.001 ppm ([1]; 16 ppm + mesotrione 0.001 ppm) | % bleaching, HST herbicide alone ([1]; 16 ppm) | % bleaching, +mesotrione 0.001 ppm ([1]; 47 ppm + mesotrione 0.001 ppm) | % bleaching, HST herbicide alone ([1]; 47 ppm)
5%: % bleaching, HST herbicide alone ([1]; 0.19 ppm) | % bleaching, +mesotrione 0.001 ppm [1, 10] | % bleaching, HST herbicide alone ([1]; 1.7 ppm)
clear synergistic effects: effect of low amounts of mesotrione on the injury down the dose response [1]
70%: % bleaching, +mesotrione 0.001 ppm ([1]; 5.2 ppm + mesotrione 0.001 ppm)

Source: patent US20110173718A1, “HERBICIDE TOLERANT PLANTS” (SYNGENTA CROP PROTECTION, INC., priority 2008, published 2011)
